Results from article PMC4301037, “Identification and Structure–Function Analysis of Subfamily Selective G Protein-Coupled Receptor Kinase Inhibitors” (ACS Chemical Biology, 2014).
Where two headings read alike, the source gives them in different places.

Experiments:
bovine GRK5 = target: T1, bovine GRK5 (Bos taurus, UniProt P43249); test: Primary DSF inhibitor screen, GRK5; type: binding; conditions: 10 μM compound, 2 μM kinase, relative to DMSO control; read-out: ΔTm, primary screen, GRK5
T1 construct: when using full-length kinases as the receptor[37] instead of isolated kinase domains; made in house
T1 sequence (P43249 whole entry, the tested form may be a part): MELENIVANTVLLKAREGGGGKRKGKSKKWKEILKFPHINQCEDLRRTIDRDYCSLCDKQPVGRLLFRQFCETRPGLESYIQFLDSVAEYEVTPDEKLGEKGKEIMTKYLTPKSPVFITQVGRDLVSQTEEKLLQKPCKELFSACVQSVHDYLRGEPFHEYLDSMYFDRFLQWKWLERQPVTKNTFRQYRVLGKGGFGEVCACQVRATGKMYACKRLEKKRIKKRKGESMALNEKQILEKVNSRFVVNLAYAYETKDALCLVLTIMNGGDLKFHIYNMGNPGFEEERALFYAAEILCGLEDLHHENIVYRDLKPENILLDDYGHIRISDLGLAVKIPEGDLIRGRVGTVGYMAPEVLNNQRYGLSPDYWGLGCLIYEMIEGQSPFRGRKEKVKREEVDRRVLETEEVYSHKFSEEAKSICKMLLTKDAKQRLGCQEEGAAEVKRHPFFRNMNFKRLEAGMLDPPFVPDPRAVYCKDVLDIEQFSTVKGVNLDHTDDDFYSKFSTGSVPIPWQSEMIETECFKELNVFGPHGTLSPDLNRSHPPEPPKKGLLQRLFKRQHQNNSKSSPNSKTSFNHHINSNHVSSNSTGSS

GRK1, 2, and 5 and PKA = test: Ssel selectivity score calculated from inhibition of GRK1, 2, 5 and PKA; conditions: selectivity score from inhibition of GRK1, 2, 5 and PKA; <0.5 selective
GRK2 [1] = target: T2, GRK2 (Bos taurus, UniProt P21146, S670A); test: In vitro phosphorylation assay (tubulin, 5 μM ATP), GRK2; type: biochemical, bovine
T2 construct: made in house
T2 sequence (P21146 1-689 S670A): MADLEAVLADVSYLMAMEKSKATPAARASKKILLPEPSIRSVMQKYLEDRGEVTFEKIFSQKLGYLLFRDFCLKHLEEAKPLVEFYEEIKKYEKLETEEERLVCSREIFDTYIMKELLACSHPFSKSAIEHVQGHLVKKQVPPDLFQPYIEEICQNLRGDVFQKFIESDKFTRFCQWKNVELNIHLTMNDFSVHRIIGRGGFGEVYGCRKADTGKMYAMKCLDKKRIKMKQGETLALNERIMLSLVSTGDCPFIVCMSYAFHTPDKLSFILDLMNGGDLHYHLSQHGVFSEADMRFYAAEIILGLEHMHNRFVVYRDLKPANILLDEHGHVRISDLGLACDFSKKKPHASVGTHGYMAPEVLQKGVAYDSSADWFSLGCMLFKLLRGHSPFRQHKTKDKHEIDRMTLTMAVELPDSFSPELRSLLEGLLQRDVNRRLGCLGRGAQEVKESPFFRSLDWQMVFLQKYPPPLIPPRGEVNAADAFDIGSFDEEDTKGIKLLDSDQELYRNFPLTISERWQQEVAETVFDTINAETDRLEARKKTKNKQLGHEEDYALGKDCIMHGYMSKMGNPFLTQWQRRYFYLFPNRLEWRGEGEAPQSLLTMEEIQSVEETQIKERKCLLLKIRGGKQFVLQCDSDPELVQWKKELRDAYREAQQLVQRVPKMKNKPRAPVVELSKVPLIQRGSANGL

GRK5 [2] = target: T3, GRK5 (Bos taurus, UniProt P43249); test: In vitro phosphorylation assay (tubulin, 5 μM ATP), GRK5; type: biochemical, bovine
T3 construct: when using full-length kinases as the receptor[37] instead of isolated kinase domains; made in house
T3 sequence (P43249 whole entry, the tested form may be a part): as the sequence (P43249 whole entry, the tested form may be a part) above

ROCK1 = conditions: relative to GSK180736A (substitution effect); cited from earlier work
GRK1 [3] = target: T4, GRK1 (Bos taurus, UniProt P28327); test: In vitro phosphorylation assay (tubulin, 5 μM ATP), GRK1; type: biochemical, bovine
T4 construct: Bovine GRK1_1–535, bovine and human GRK2S670A; made in house
T4 sequence (P28327 1-535): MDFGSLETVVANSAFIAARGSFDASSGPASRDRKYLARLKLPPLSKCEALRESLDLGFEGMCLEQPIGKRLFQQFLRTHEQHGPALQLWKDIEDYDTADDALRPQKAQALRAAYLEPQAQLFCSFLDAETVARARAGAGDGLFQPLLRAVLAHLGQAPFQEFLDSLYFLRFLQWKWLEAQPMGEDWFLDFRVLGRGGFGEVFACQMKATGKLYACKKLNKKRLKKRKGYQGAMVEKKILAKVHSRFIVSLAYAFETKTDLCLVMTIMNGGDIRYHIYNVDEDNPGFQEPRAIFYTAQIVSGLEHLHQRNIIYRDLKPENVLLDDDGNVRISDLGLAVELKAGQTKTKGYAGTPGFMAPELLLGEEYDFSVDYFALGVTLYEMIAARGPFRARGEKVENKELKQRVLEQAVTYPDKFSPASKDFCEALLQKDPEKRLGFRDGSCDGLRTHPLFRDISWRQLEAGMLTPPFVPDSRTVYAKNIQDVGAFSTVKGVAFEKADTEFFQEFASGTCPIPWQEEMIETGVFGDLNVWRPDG

human GRK2S670A = target: T5, human GRK2S670A (Homo sapiens, UniProt P25098, S670A); test: Primary DSF (differential scanning fluorimetry) inhibitor screen, GRK2; type: binding; conditions: 10 μM compound; for ΔTm at 10 µM: read-out: ΔTm, primary screen, GRK2; for rank in the primary screen, GRK2: rank ordering of compounds in primary DSF screen
T5 construct: when using full-length kinases as the receptor[37] instead of isolated kinase domains; made in house
T5 sequence (P25098 1-689 S670A): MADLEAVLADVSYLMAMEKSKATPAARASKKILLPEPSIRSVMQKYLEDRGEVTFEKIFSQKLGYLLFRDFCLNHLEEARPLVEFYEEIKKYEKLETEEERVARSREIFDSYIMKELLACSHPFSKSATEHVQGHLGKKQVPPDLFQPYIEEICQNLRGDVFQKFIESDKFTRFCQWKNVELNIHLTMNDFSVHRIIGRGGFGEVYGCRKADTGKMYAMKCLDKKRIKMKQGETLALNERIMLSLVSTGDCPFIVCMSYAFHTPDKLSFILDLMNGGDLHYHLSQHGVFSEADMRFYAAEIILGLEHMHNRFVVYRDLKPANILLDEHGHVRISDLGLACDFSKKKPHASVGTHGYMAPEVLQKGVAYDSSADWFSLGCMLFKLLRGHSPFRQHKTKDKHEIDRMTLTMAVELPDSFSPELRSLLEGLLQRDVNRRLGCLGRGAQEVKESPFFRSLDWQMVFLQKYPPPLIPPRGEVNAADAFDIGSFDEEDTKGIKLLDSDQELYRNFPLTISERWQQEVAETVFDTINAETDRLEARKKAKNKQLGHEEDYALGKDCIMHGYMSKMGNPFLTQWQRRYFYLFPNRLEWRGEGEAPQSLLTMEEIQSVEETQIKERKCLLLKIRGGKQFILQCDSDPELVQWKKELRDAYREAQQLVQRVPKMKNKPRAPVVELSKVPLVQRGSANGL

GRK2 [4] = target: T6, GRK2 (Homo sapiens, UniProt P25098, S670A); test: DSF retest (confirmation), GRK2; type: binding; conditions: for GRK2 Tm: 0.2 mg mL^–1 kinase; for GRK2 ΔTm: relative to intrinsic melting point of the kinase
T6 construct: made in house
T6 sequence (P25098 1-689 S670A): T5 sequence (P25098 1-689 S670A)

GRK5 [5] = target: T3, GRK5; test: DSF retest (confirmation), GRK5; type: binding, bovine; conditions: for GRK5 Tm: 0.2 mg mL^–1 kinase; for GRK5 ΔTm: relative to intrinsic melting point of the kinase
PKA = target: T7, PKA (Mus musculus, UniProt P05132); test: PKA inhibition assay (ADP-Glo, CREBtide, 100 μM ATP); type: biochemical
T7 construct: His tag (inferred from pET15b vector and Ni-NTA column) (N); host or cells: E. coli Rosetta(DE3)pLysS

GRK1 [6] = target: T4, GRK1; test: DSF retest (confirmation), GRK1; type: binding, bovine; conditions: for GRK1 Tm: 0.2 mg mL^–1 kinase; for GRK1 ΔTm: relative to intrinsic melting point of the kinase
protein kinase A (PKA) = target: T8, protein kinase A (PKA) (Mus musculus, UniProt P05132); test: DSF retest (confirmation), PKA; type: binding; conditions: for PKA Tm: 0.2 mg mL^–1 kinase; for PKA ΔTm: relative to intrinsic melting point of the kinase
T8 construct: His tag (inferred from pET15b vector and Ni-NTA column) (N); host or cells: E. coli Rosetta(DE3)pLysS
Protocol: Fourteen compounds (Figure 1a–c), including all GRK2 hits except staurosporine, and the most stabilizing pyrrolopyrimidine-containing compounds were obtained from GSK and retested using DSF on GRKs representing each vertebrate subfamily (GRK1, 2, and 5) (Table 1). […] The ability of these compounds to shift the Tm of the related AGC family kinase member protein kinase A (PKA) was also assessed (Table 1). In no case was ΔTm greater for PKA than for one of the tested GRKs. […]. There was no correlation for GRK1 (Figure 2c).
DSF was conducted using a ThermoFluor plate reader (Johnson & Johnson) in a buffer containing 20 mM HEPES, pH 7.0, 5 mM MgCl2, 2 mM DTT, and 1 mM CHAPS with 0.2 mg mL^–1 final concentration of GRK or PKA and 100 μM 1-anilinonaphthalene-8-sulfonic acid.[14]

[7] = 2 μM kinase, relative to DMSO control
[8] = logarithm of IC50 (−3.3 corresponds to 0.5 mM, footnote c), 438 nM PKA, 100 μM ATP, CREBtide, read-out: PKA log IC50 (converted)

Row | Compound | ΔTm at 10 µM (bovine GRK5) [°C] | Ssel (GRK1, 2, and 5 and PKA) | GRK2 fold (increase in potency relative to paroxetine) (GRK2 [1]) [fold] | GRK5 fold (increase in potency relative to paroxetine) (GRK5 [2]) [fold] | increase in potency of ROCK inhibition (ROCK1) [fold] | ΔTm at 10 µM (human GRK2S670A; [7]) [°C] | rank in the primary screen, GRK2 (human GRK2S670A) | GRK2 Tm (GRK2 [4]) [°C] | GRK2 ΔTm (GRK2 [4]) [°C] | GRK5 Tm (GRK5 [5]) [°C] | GRK5 ΔTm (GRK5 [5]) [°C] | IC50 (PKA; [8]) [µM] | GRK1 Tm (GRK1 [6]) [°C] | GRK1 ΔTm (GRK1 [6]) [°C] | PKA Tm (protein kinase A (PKA)) [°C] | PKA ΔTm (protein kinase A (PKA)) [°C] | other results
1 | CC1=C(C(=O)Nc2ccc3[nH]ncc3c2)C(c2ccc3ccccc3c2)CC(=O)N1 (stereo not drawn) [GSK270822A] | 3.92 | 0.883 | 0.10 | 2.0 | 5 | 3.82 | 5 | 47.8 | 10.3 | 29.4 | 2.6 | 50.1 | 24.6 | 4.7 | 51.9 | 6.5 | GRK1 fold (increase in potency relative to paroxetine) (GRK1 [3]; relative to paroxetine): 1 fold; ΔTm, primary screen, GRK2 (human GRK2S670A; [7]): 3.8 °C; IC50 (PKA; read-out: IC50 against PKA): < 100 µM
2 | CC1=C(C(=O)Nc2ccc3[nH]ncc3c2)C(c2ccc(F)cc2)NC(c2ccc(C(F)(F)F)nc2)=N1 (stereo not drawn) [GSK317354A] | 2.29 | 0.109 | 0.50 | 0.20 | 10 | 3.78 | 6 | 49.0 | 11.4 | 27.3 | 0.6 | 200 | 23.2 | 3.3 | 45.9 | 0.5 | IC50 (GRK2 [1]; read-out: GRK2 log IC50 (converted)): 2.51 µM; less potent than GSK180736A against GRK2 (GRK2 [1]; relative to GSK180736A): about 1 log; IC50 (GRK5 [2]; read-out: GRK5 log IC50 (converted)): 631 µM; IC50 (GRK1 [3]; read-out: GRK1 log IC50 (converted)): > 1000 µM
